Laboratory results taken from article PMC9774600, “Oligopeptide Sortase Inhibitor Modulates Staphylococcus aureus Cell Adhesion and Biofilm Formation” (Antibiotics, 2022).
Entries after “also recorded” stand apart in the source; their conditions may differ.

Experiments:
[1] = test system: S. aureus ATCC 29213 (MSSA) adhesion to Vero cells; assay: Adhesion of LPRDA-modified S. aureus to Vero cells; format: cell-based, Staphylococcus aureus; settings: for AI (adhesion index): control 5.2 ± 0.3; for PI (percentage of infected cells): control 100; for ML (microbial load, AI×PI): control 516.7 ± 31.1
Protocol: (§1) The influence of LPRDA on staphylococcal adhesive properties was evaluated using preliminary incubation of the studied bacterial strains with LPRDA for 18 h and subsequent microscopic detection of adhesion cases of the modified staphylococci to African green monkey kidney epithelial cells (Vero). The following parameters were determined from the adhesion experiments: adhesion index (AI), defined as the average number of attached bacterial cells per eukaryotic cell; percentage of infected cells (PI), defined as the proportion of Vero cells with bacteria adhered to their surface; microbial load (ML), defined as a product AI×PI; and adhesion inhibition index (AII), defined as the ratio of experimental AI to control.
(§2) Vero cells were seeded in 96-well plates at 25 × 10^3 cells/well and grown overnight. Bacterial cells (S. aureus ATCC 29213 or S. aureus ATCC 43300) were incubated with the oligopeptide LPRDA in the concentration range 12.5–100 µmol/L at 37 °C for 18 h with constant shaking at 100 rpm. Luria–Bertani (LB) medium and untreated bacteria served as a control. After incubation, the bacterial suspension was centrifuged at 10,000× g rpm for 10 min and washed twice with sterile PBS for 5 min at 10,000 rpm. The final bacterial concentrations were adjusted to the OD560 of 0.3 McFarland in sterile saline. Next, the monolayer of Vero cells in the 96-well plates was inoculated with 100 μL of the bacterial suspension with an equal volume of the stock DMEM culture medium and incubated for 1 h. The monolayer was washed three times with phosphate-buffered saline (PBS), followed by fixation with 4% formaldehyde for 60 min. Then, the wells of the plates were washed twice with PBS, dried, and stained with purified gentian violet solution (1%) for 15 min. The dye was removed, and images were captured in […] at 40× using an Evos FL microscope (Thermo Fisher Scientific, Waltham, MA, USA). Images were captured in 4–10 random fields of view at 40-fold magnification using an Evos FL microscope. Images were analyzed using ImageJ Fiji software v1.53c.

[2] = test system: S. aureus ATCC 43300 (MRSA) adhesion to Vero cells; assay: Adhesion of LPRDA-modified S. aureus to Vero cells; format: cell-based, Staphylococcus aureus; settings: for AI (adhesion index) / PI (percentage of infected cells) / ML (microbial load, AI×PI): 18 h pre-incubation; for AI (adhesion index): control 7.6 ± 0.1; for PI (percentage of infected cells): control 100; for ML (microbial load, AI×PI): control 755.9 ± 10.6
Protocol: as §1, §2

[3] = test system: S. aureus ATCC 29213 (MSSA) biofilm; assay: Inhibition of biofilm formation assay; format: cell-based, Staphylococcus aureus; settings: 100 µmol/L LPRDA
Protocol: (§3) The assay was performed according to the protocol described by O’Toole, with minor modifications. To evaluate the effect of LPRDA on biofilm formation by the S. aureus ATCC 29213 and S. aureus ATCC 43300 strains, 150 µL of sterile LB broth with 4% glucose containing 12.5–100 µmol/L concentrations of LPRDA was added to four wells of 96-well plates. Then, 50 µL of staphylococcal culture (1 × 10^7 CFU/mL) was added and incubated at 37 °C for 24 h. LB culture broth that was not treated with LPRDA was used as the positive control. After 24 h, the plates were washed with PBS to remove planktonic and dead cells, stained with a 0.1% solution of gentian violet for 20 min, followed by extraction of the bound dye with 96% ethanol. The optical density (OD) of the obtained extracts was measured at 570 nm using a SPECTROstar Nano spectrophotometer.
(§4) The bacterial strains were classified into categories according to the Stepanović criteria. Quantitative calculation of S. aureus CFU in the biofilm formed in the presence of LPRDA and in the control experiments was assessed by inoculation on Columbia agar according to the Koch procedure. Inhibition of biofilm formation was determined according to the Kumari method.

[4] = test system: S. aureus ATCC 43300 (MRSA) biofilm; assay: Inhibition of biofilm formation assay; format: cell-based, Staphylococcus aureus; settings: 24 h
Protocol: as §3, §4

[5] = format: physicochemical
Description: The pentapeptide LPRDA was synthesized using the solid-phase peptide 9-fluorenylmethoxycarbonyl chemistry method. […] HRMS (ESI, m/z): [M + H]^+ calculated for C24H42N8O8, 571.3204; found, 571.3188.

S. aureus = settings: cited from earlier work
Description: This concentration is at least eight times higher than those used for inducing antiadhesive effects, which is consistent with the LPRDA MIC > 200 µmol/L reported in [18]. A lack of bactericidal activity is an essential property for antivirulence therapeutics. The following experiments have found differ ...

[6] = test system: community-associated MRSA strain USA300; settings: 25 µmol/L LPRDA, compared with srtA mutants; cited from earlier work
Protocol: Wang et al. studied the community-associated MRSA strain USA300 and its srtA mutants in a biofilm formation assay. […] We studied the influence of LPRDA at concentrations of 12.5 to 100 µmol/L on biofilm production by the MSSA and MRSA strains used in this adhesion experiment. We observed a concentration-dependent decrease in the amount of biofilm formed by the S. aureus ATCC 29213 (MSSA) strain when it was incubated with increasing concentrations of LPRDA (F ...

[7] = test system: S. aureus-induced mastitis; settings: mouse model; cited from earlier work
Description: Only a few SrtA inhibitors have been evaluated in vivo, and so far, none have advanced to clinical trials, which would necessitate an actual efficacy evaluation and follow-up of the in-depth studies of these compounds [17]. […] Due to our interest in the development of novel antibacterials with antiadhesive mechanisms of action, we selected a reference compound with ...

S. aureus SrtA = settings: read-out: IC50 inhibition of the recombinant enzyme; cited from earlier work
[8] = MSSA pre-incubated 18 h with 100 µmol/L LPRDA, then 1 h with Vero cells, mean ± SD
[9] = MSSA, 12.5 µmol/L LPRDA, 18 h pre-incubation
[10] = MSSA, 25 µmol/L LPRDA, 18 h pre-incubation, mean ± SD
[11] = MSSA, 50 µmol/L LPRDA, 18 h pre-incubation, mean ± SD
[12] = MSSA, 100 µmol/L LPRDA, p = 0.021
[13] = highest studied LPRDA concentration (100 µmol/L), p = 0.01

Leu-Pro-Arg-Asp-Ala [LPRDA]
AI (adhesion index) [1, 8]: 3.4 ± 0.4; 0.021 | PI (percentage of infected cells) [1, 8]: 84.0 ± 2.8; 0.021% | ML (microbial load, AI×PI) [1, 8]: 286.9 ± 38.8; 0.009 | AI (adhesion index) [1, 9]: 5.4; 0.53 | PI (percentage of infected cells) [1, 9]: 100; 0.53% | ML (microbial load, AI×PI) [1, 9]: 542.9; 0.53 | AI (adhesion index) [1, 10]: 4.8 ± 0.2; 0.43 | PI (percentage of infected cells) [1, 10]: 99.0 ± 0.8; 0.373% | ML (microbial load, AI×PI) [1, 10]: 471.1 ± 26.5; 0.414 | AII (adhesion inhibition index, ratio of experimental AI to control) ([1]; MSSA, 50 µmol/L LPRDA): 55.8% | AI (adhesion index) [1, 11]: 2.9 ± 0.2; 0.01 | PI (percentage of infected cells) [1, 11]: 85.0 ± 4.6; 0.054% | ML (microbial load, AI×PI) [1, 11]: 240.8 ± 9.2; 0.002 | AII (adhesion inhibition index, ratio of experimental AI to control) ([1]; MSSA, 100 µmol/L LPRDA): 65.4% | AI reduction ([1]; MSSA, 100 µmol/L LPRDA, 1 h incubation with Vero cells): 1.5 times | ML decrease relative to the control ([1]; MSSA, 100 µmol/L LPRDA, p = 0.009): 45% | AI decrease relative to the control [1, 12]: 34.6% | PI decrease relative to the control [1, 12]: 16% | Antiadhesive effect ([1]; MSSA, LPRDA concentrations below 50 µmol/L): did not have a notable antiadhesive effect | AI (adhesion index) ([2]; 12.5 µmol/L LPRDA): 7.9; 0.056 | PI (percentage of infected cells) ([2]; 12.5 µmol/L LPRDA): 100; – % | ML (microbial load, AI×PI) ([2]; 12.5 µmol/L LPRDA): 790.2; 0.056 | PI (percentage of infected cells) ([2]; 25 µmol/L LPRDA): 100; – % | AI (adhesion index) ([2]; 25 µmol/L LPRDA, mean ± SD): 7.4 ± 0.1; 0.516 | ML (microbial load, AI×PI) ([2]; 25 µmol/L LPRDA, mean ± SD): 744.2 ± 8.3; 0.516 | PI (percentage of infected cells) ([2]; 50 µmol/L LPRDA): 100; – % | AI (adhesion index) ([2]; 50 µmol/L LPRDA, mean ± SD): 7.3 ± 0.2; 0.332 | ML (microbial load, AI×PI) ([2]; 50 µmol/L LPRDA, mean ± SD): 727.4 ± 18.2; 0.33 | PI (percentage of infected cells) ([2]; 100 µmol/L LPRDA): 100; – % | ML (microbial load, AI×PI) ([2]; 100 µmol/L LPRDA, mean ± SD): 679.2 ± 13.6; 0.01 | AI (adhesion index) ([2]; 100 µmol/L LPRDA, then 1 h with Vero cells, mean ± SD): 6.8 ± 0.1; 0.01 | Antiadhesive effect ([2]; 12.5–100 µmol/L LPRDA): did not induce an appreciable antiadhesive effect; also recorded: did not induce a significant antiadhesive effect | AI lower than the control [2, 13]: approximately 10% | ML lower than the control [2, 13]: approximately 10% | Number of sessile bacterial cells in biofilm ([3]; 24 h, control 5 × 10^6 CFU/mL, inoculation on Columbia agar): 5 × 10^5 CFU/mL | Reduction in biofilm ([3]; 24 h, gentian violet OD 570 nm): 44% | Decrease in sessile cell bacteria number ([3]; 24 h incubation): 10 fold | Decrease in biofilm formation (biomass) ([4]; 100 µmol/L LPRDA (maximum decrease), gentian violet OD 570 nm): 12% | Number of sessile bacteria versus control ([4]; 12.5–100 µmol/L LPRDA): No significant difference | Solubility [5]: soluble in water | MIC (S. aureus): > 200 µM | Biofilm formation [6]: attenuated biofilm formation to the level of knocked out bacteria | Protection against S. aureus-induced mastitis [7]: demonstrated protection against S. aureus-induced mastitis | IC50 (S. aureus SrtA): 10.6 µM
